These results are taken from article PMC8597634, “4-Iminooxazolidin-2-One as a Bioisostere of Cyanohydrin Suppresses EV71 Proliferation by Targeting 3C^pro” (Microbiology Spectrum, 2021).

The structures appear in SMILES notation. Where two headings read alike, the source gives them in different places.

What is called Ki is a dissociation constant, usually derived from enzyme kinetics or from competition with a known ligand. A high value points to a looser hold on the target.

The conditions of series [1]: cited from earlier work.
For series [2], the system named is EV71. As to conditions: cited from earlier work.
Series [3] deals with HRV. Also on record: method as in PMID 20066739, PMID 21536800, PMID 23295352, PMID 23633597. The following applies: cited from earlier work.
For series [4], the system named is EV71-luciferase virus. Put plainly: EC50 with EV71-luciferase virus on HEK-293T cells. The series is classed as cell-based. The following applies: Enterovirus A, EV71, HEK-293T, 24 h. As to the method:
(§1) One hundred microliters each of RD (3 × 10^5 cells/ml), VeroE6 (3 × 10^5 cells/ml), and HEK-293T cells (2 × 10^5 cells/ml) was cultured overnight. Each 96-well plate of cells was treated with EV71-luciferase virus and diluted FOPMC/FIOMC (diluted from 3 nM to 20 μM) for 24 h. The luciferase signals were tested using the firefly luciferase kit (Promega, USA). All of the EC50s were profiled by Graph Pad Prism 7.0.

The subject of series [5] is RD cells. Kind of series: Cytotoxicity (CellTiter-Glo) on RD cells. The following applies: even at 200 μM, 48 h. The series is classed as cell-based, human. As to the method:
(§2) Determination of the cytotoxicity of FOPMC and FIOMC was performed on three cell lines using a CellTiter-Glo kit (Promega, USA). Briefly, RD, VeroE6, and HEK-293T cells were treated with gradient dilutions of […] (from 0.78 to 200 μM) for 48 h. CellTiter-Glo reagents were applied to evaluate the cells' viability by a microplate reader.
(In general: In ATP-based viability assays light output follows the ATP content of the culture.)

The test system of series [6] is HEK-293T cells. Put plainly: Cytotoxicity (CellTiter-Glo) on HEK-293T cells. The series is classed as cell-based. As to conditions: even at 200 μM, 48 h. The method, then: as §2
For series [7] the following is noted: cited from earlier work. This is another data set of the same source.
Series [8] has as its system EV71-GFP. Kind of series: Phenotype assay with EV71-GFP reporter virus in RD cells. The series is classed as cell-based. The following applies: 0.16 to 20 μM, 24 h. As to the method: RD cells (3 × 10^4 per well) were cultured in 96-well plates overnight. Diluted compounds (0.16 to 20 μM) and EV71-GFP reporter virus were added to RD cells. After 24 hpi, the GFP was monitored using confocal microscopy (Olympus, Japan).

In series [9] the test system is EV71 genotype C Fuyang virus. Put plainly: qRT-PCR of viral genome replication, EV71 Fuyang virus in RD cells. The format is cell-based. As to conditions: Enterovirus A, 24 hpi. The method, then: (§3) The viral genome replication inhibition in host cells after treatment with FOPMC and FIOMC was monitored by EV71 genotype C Fuyang virus. Briefly, RD cells were cultured at 1.5 × 10^5 per well at 37°C for 24 h and then incubated with gradient-diluted FOPMC, FIOMC, and virus. The intracellular RNAs were extracted using TRIzol (TransGen, China) after 24 hpi. The real-time quantitative PCR (qRT-PCR) assays were performed with a SYBR RT-PCR kit (Bio-Rad, USA) for the EV71 5′ […] region (UTR) and the host GAPDH. The transcript copies of EV71 5′ UTR and GAPDH were calculated using the threshold cycle (ΔΔCT) method ([35]).

Series [10] deals with pEV71-replicon RNA. Put plainly: pEV71-replicon RNA assay in RD cells. The format is cell-based, EV71. The following applies: RD cells transfected with pEV71-replicon RNA, 5 μM. As to the method:
RD cells (3 × 10^4 per well) were treated with FOPMC (5 μM), FIOMC (5 μM), GPP3 (1 μM), NK-1.8k (2 μM), and EV71-luciferase virus, respectively. Another plate of RD cells was treated with the same concentrations of the four inhibitors and transfected with pEV71-replicon RNA. After 24 hpi, the luciferase activity was determined using Bright-Glo luciferase substrate (Promega, USA).

Series [11] deals with EV71-B. Kind of series: Antiviral activity by qRT-PCR in RD cells, EV71-B. The series is classed as cell-based. The following applies: Enterovirus A. The method, then: as §3
(§4) To evaluate the antiviral effect of FOPMC and FIOMC on various viral strains, we measured the EC50s of these two inhibitors on five virus strains. RD cells were treated with FOPMC/FIOMC (0.003 to 50 μM) and each viral strain for 2 h. The antiviral activity was conducted by qRT-PCR according to the method described above.
A general note: In qPCR the cycle at which signal appears reflects the starting amount.

Series [12] addresses T1, EV71 3C^pro (Human enterovirus 71, UniProt Q66478).
T1 construct: The EV71 3C^pro plasmid was amplified and linked into a pET-28a vector; 6xHis; made in house; host or cells: Escherichia coli
Put plainly: Hydrolytic activity inhibition of EV71 3C^pro on precursor 3BC (SDS-PAGE). The following applies: 100 μM 3C^pro, molar ratio 1:5, GST-3BC-C147A 50 μM. The format is biochemical. The method, then: To ascertain whether FOPMC and FIOMC inactivated EV71 3C^pro to hydrolyze the precursor 3BC, the fusion protein GST-3BC with a catalytic central residue C147A mutation was expressed. A 100 μM concentration of EV71 3C^pro and FOPMC/FIOMC (at a molar ratio of 1:5) was incubated at 30°C for 2 h. GST-3BC (50 μM) protein was added for another 4 h, and the reagents were analyzed using SDS-PAGE.

The subject of series [13] is EV71. Kind of series: Selection of resistant virus by continuous culture of EV71. The format is cell-based. As to conditions: EV71 cultured for 20 rounds, sequence analyses.
The test system of series [14] is EV71-C. Kind of series: Antiviral activity by qRT-PCR in RD cells, EV71-C. As to conditions: Enterovirus A. The series is classed as cell-based. As to the method: as §3, §4
For series [15], the system named is CVB3. Kind of series: Antiviral activity by qRT-PCR in RD cells, CVB3. The format is cell-based, coxsackievirus B3. The following applies: Enterovirus B. As to the method: as §3, §4
Series [16] deals with EV71-luciferase virus. Kind of series: Time-of-addition assay with EV71-luciferase virus in RD cells. The format is cell-based. The following applies: −6 to 10 hpi, FOPMC 5 μM, FIOMC 5 μM, GPP3 1 μM.
Series [17] deals with EV71 VP1. Put plainly: Expression of EV71 VP1 in RD cells. As to conditions: GAPDH invariable. The format is cell-based.
Series [18] relates to EV71-A. Put plainly: Antiviral activity by qRT-PCR in RD cells, EV71-A. The series is classed as cell-based. As to conditions: Enterovirus A. As to the method:
as §3, §4

Series [19] concerns EV71-luciferase virus. Kind of series: EC50 with EV71-luciferase virus on RD cells. The format is cell-based. As to conditions: Enterovirus A, 24 h. The method, then:
as §1

Series [20] relates to CVA16. Put plainly: Antiviral activity by qRT-PCR in RD cells, CVA16. The series is classed as cell-based, coxsackievirus A16. The following applies: Enterovirus A. The method, then: as §3, §4
The subject of series [21] is EV71-luciferase virus. Kind of series: EC50 with EV71-luciferase virus on VeroE6 cells. The format is cell-based. The following applies: Enterovirus A, EV71, Vero C1008, 24 h. As to the method: as §1
Series [22] has as its target T1, EV71 3C^pro. Kind of series: Inhibitor constant (Ki) enzymatic FRET assay. The format is biochemical. The following applies: 0.5 μM EV71 3C^pro, 100 μM peptide, 2 h. As to the method:
The inhibitor constants (Kis) were determined by fluorescence resonance energy transfer (FRET) using NMA-IEALFQGPPK(DNP)FR peptide. The assays were performed with 50 mM Tris-HCl–150 mM NaCl (pH 7.0) with 0.5 μM EV71 3C^pro and gradient-diluted FOPMC/FIOMC. Subsequently, 100 μM each peptide was hydrolyzed for 2 h. The fluorescence signals were monitored at a microplate reader (Perkin Elmer, USA).

The subject of series [23] is VeroE6 cells. Kind of series: Cytotoxicity (CellTiter-Glo) on VeroE6 cells. The format is cell-based. As to conditions: even at 200 μM, 48 h. As to the method:
as §2

The subject of series [24] is five viral strains. Kind of series: Antiviral activity on five viral strains (summary in discussion). The series is classed as cell-based. The following applies: read-out: EC50s depending on the specific virus. The method, then:
as §4

The subject of series [25] is EV-D68. Also on record: method as in PMID 25554786. The following applies: cited from earlier work.

Take `Cc1cc(C(=O)NC(Cc2ccc(F)cc2)C(=O)NC(CC2CCCNC2=O)C(O)C#N)no1` [(R)-1, reference compound]: the “half-life [t1/2] in human plasma” value in series [1] is given as 11 min.
As to `CCOC(=O)/C=C/[C@H](C[C@@H]1CCNC1=O)NC(=O)[C@@H](CC(=O)[C@@H](NC(=O)c1cc(C)on1)C(C)C)Cc1ccc(F)cc1` [AG7088], the results for the EC50 in [2] (EV71) and in series [3] were 1670 nM and 13 nM, respectively.
Take `Cc1cc(C(=O)NC(Cc2ccc(F)cc2)C(=O)NC(CC2CCCNC2=O)C2OC(=O)N(C(C)C)C2=N)no1` (stereo not shown) [FIOMC]: the EC50 in [4] worked out at 93 ± 7 nM; in [9], 67 ± 1 nM; in [11] it was 102 ± 9 nM; in series [14] it was 75 ± 3 nM; in series [15], 80 ± 4 nM; in [18], 96 ± 1 nM. Further, the EC50 in series [19] was 92 ± 3 nM; in series [20], 125 ± 2 nM; in series [21], 104 ± 8 nM; in [24], 80 to 125 nM. The Cytotoxicity entry in [5], in series [6] and in series [23] was “no apparent cytotoxic effect” in each case. Further, in series [7], the “t1/2 in mouse plasma” value is “exceed 120 min”. Moreover, the “replication of EV71-GFP in phenotype screen” value in series [8] is “positive results”. Also, the “half-life [t1/2] in human plasma” value in series [1] is recorded as “exceed 120 min”. In series [10], the effect on replicon result is “impacted the virus replication stage”. Besides, the “hydrolysis of 3BC by 3C^pro” value in series [12] was “distinctly restrained the hydrolysis”. Also, the “resistance mutation after continuous culture” value in series [13] was “no mutation of EV71 virus”. Further, the “inhibitory effect by time of addition” value in series [16] is recorded as “valid inhibitory effects regardless of the time”. Also, the “expression of EV71 VP1” value in series [17] is “inhibited”. The compound also came in with a Ki in series [22] of 33 ± 8 nM.
In the case of `CCCN1C(=N)C(C(CC2CCCNC2=O)NC(=O)C(Cc2ccc(F)cc2)NC(=O)c2cc(C)on2)OC1=O` (stereo not shown) [FOPMC], the EC50 is 299 ± 28 nM in series [4]; 123 ± 4 nM in series [9]; 135 ± 4 nM in [11]; 128 ± 9 nM in series [14]; 210 ± 5 nM in series [15]; 115 ± 2 nM in series [18]. Besides, the EC50 was determined as 244 ± 12 nM in series [19], 217 ± 14 nM in series [20] and 202 ± 15 nM in [21]. In addition, the Cytotoxicity entry in series [5], in series [6] and in series [23] was “no apparent cytotoxic effect” each time. Moreover, the “t1/2 in mouse plasma” value in [7] is given as “exceed 120 min”. Also, the “replication of EV71-GFP in phenotype screen” value in [8] is “positive results”. In series [1], the “half-life [t1/2] in human plasma” value was “exceed 120 min”. Besides, the effect on replicon result in series [10] is reported as “impacted the virus replication stage”. Besides, the “hydrolysis of 3BC by 3C^pro” value in series [12] is reported as “distinctly restrained the hydrolysis”. The “resistance mutation after continuous culture” value in series [13] was “no mutation of EV71 virus”. Further, the “inhibitory effect by time of addition” value in series [16] is “valid inhibitory effects regardless of the time”. Besides, in series [17], the “expression of EV71 VP1” value is reported as “inhibited”. This compound also gave a Ki in series [22] of 83 ± 1 nM.
As to `O=c1c(O)c(-c2ccc(O)c(O)c2)oc2cc(O)ccc12` [Fisetin], the EC50 in series [2] (anti-EV71 activity) was 85000 nM.
`CCON=Cc1ccc(OCCC(C)CCN2CCN(c3ccncc3)C2=O)cc1` (stereo not shown) [GPP3, reference compound]: the “inhibitory effect by time of addition” value in [16] is “dramatically decreased from 4 hpi”.
Consider `O=c1cc(-c2ccc(O)c(O)c2)oc2cc(O[C@@H]3O[C@H](CO)[C@@H](O)[C@H](O)[C@H]3O)cc(O)c12` [Luteoloside], for which the EC50 in series [2] (cytopathy caused by EV71 infection) is 430000 nM.
`Cc1cc(CCCOc2c(C)cc(-c3noc(C(F)(F)F)n3)cc2C)on1` [pleconaril]: the EC50 in series [25] was 430 nM.
Regarding `O=c1c(O)c(-c2ccc(O)c(O)c2)oc2cc(O)cc(O)c12` [quercetin], the EC50 in series [2] (EV71) was 12100 nM.
Consider `C[C@@H]1O[C@@H](OC[C@H]2O[C@@H](Oc3c(-c4ccc(O)c(O)c4)oc4cc(O)cc(O)c4c3=O)[C@H](O)[C@@H](O)[C@@H]2O)[C@H](O)[C@H](O)[C@H]1O` [rutin], for which, in [2] (anti-EV71 activity), the EC50 was 110000 nM.
